Results taken from paper PMC12203311, “Design, synthesis, in silico and in vitro evaluation of pyrrole–indole hybrids as dual tubulin and aromatase inhibitors with potent anticancer activities” (RSC Advances, 2025).
Where two headings read alike, the source gives them in different places.

Assays:
[1] = tested on: RPMI-8226; assay: NCI60 five-dose screen; assay type: cell-based; conditions: Homo sapiens, RPMI-8226, leukemia; for CC50: read-out: LC50 (the source's name)
[2] = tested on: OVCAR-3; assay: NCI60 five-dose screen; assay type: cell-based; conditions: Homo sapiens, OVCAR-3, ovarian cancer; for CC50: read-out: LC50 (the source's name)
[3] = tested on: HS 578T; assay: NCI60 five-dose screen; assay type: cell-based; conditions: Homo sapiens, breast cancer; for CC50: read-out: LC50 (the source's name)
[4] = tested on: CCRF-CEM; assay: NCI60 five-dose screen; assay type: cell-based; conditions: Homo sapiens, leukemia; for CC50: read-out: LC50 (the source's name)
[5] = tested on: UACC-62; assay: NCI60 five-dose screen; assay type: cell-based; conditions: Homo sapiens, UACC-62, melanoma; for CC50: read-out: LC50 (the source's name)
[6] = tested on: U251; assay: NCI60 five-dose screen; assay type: cell-based; conditions: Homo sapiens, U-251, U251, CNS cancer; for CC50: read-out: LC50 (the source's name)
[7] = tested on: SK-MEL-5; assay: NCI60 five-dose screen; assay type: cell-based, human; conditions: Homo sapiens; for CC50: SK-MEL-5, SK-MEL-5, melanoma, read-out: LC50 (the source's name); for GI50: SK-MEL-5, melanoma
[8] = tested on: SK-MEL-28; assay: NCI60 five-dose screen; assay type: cell-based; conditions: Homo sapiens, SK-MEL-28, melanoma; for CC50: read-out: LC50 (the source's name)
[9] = tested on: HL-60 (TB); assay: NCI60 five-dose screen; assay type: cell-based; conditions: Homo sapiens, leukemia; for CC50: read-out: LC50 (the source's name)
[10] = tested on: SW-620; assay: NCI60 five-dose screen; assay type: cell-based; conditions: Homo sapiens, SW-620, colon cancer; for CC50: read-out: LC50 (the source's name)
[11] = tested on: HCC-2998; assay: NCI60 five-dose screen; assay type: cell-based; conditions: Homo sapiens, HCC-2998, colon cancer; for CC50: read-out: LC50 (the source's name)
[12] = tested on: OVCAR-5; assay: NCI60 five-dose screen; assay type: cell-based; conditions: Homo sapiens, OVCAR-5, ovarian cancer; for CC50: read-out: LC50 (the source's name)
[13] = tested on: SF-539; assay: NCI60 five-dose screen; assay type: cell-based; conditions: Homo sapiens, SF-539, CNS cancer; for CC50: read-out: LC50 (the source's name)
[14] = tested on: NCI-H23; assay: NCI60 five-dose screen; assay type: cell-based; conditions: Homo sapiens, NCI-H23, NSC lung cancer; for CC50: read-out: LC50 (the source's name)
[15] = tested on: RXF 393; assay: NCI60 five-dose screen; assay type: cell-based; conditions: Homo sapiens, RXF 393, renal cancer; for CC50: read-out: LC50 (the source's name)
[16] = tested on: MALME-3M; assay: NCI60 five-dose screen; assay type: cell-based; conditions: Homo sapiens, melanoma; for CC50: read-out: LC50 (the source's name)
[17] = tested on: MDA-MB-231/ATCC; assay: NCI60 five-dose screen; assay type: cell-based; conditions: Homo sapiens, breast cancer; for CC50: read-out: LC50 (the source's name)
[18] = tested on: T-47D; assay: NCI60 five-dose screen; assay type: cell-based; conditions: Homo sapiens, T47D, breast cancer; for CC50: read-out: LC50 (the source's name)
[19] = tested on: SNB-75; assay: NCI60 five-dose screen; assay type: cell-based; conditions: Homo sapiens, SNB-75, CNS cancer; for CC50: read-out: LC50 (the source's name)
[20] = tested on: T47D breast cancer cell line; assay: Cytotoxicity MTT assay, T47D; assay type: cell-based, human; conditions: Homo sapiens, T47D; MTT, 48 hours
Summary of the method: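 Cells in DMEM with 10% FBS and penicillin/streptomycin (37 °C, 5% CO2) were seeded at 10 000 per well, grown overnight, then exposed to compounds for 48 hours. MTT (0.5 mg mL^−1) was added for 3 hours, formazan dissolved in DMSO, and absorbance read at 570 nm; viability was expressed against DMSO vehicle.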

[21] = tested on: K-562; assay: NCI60 five-dose screen; assay type: cell-based; conditions: Homo sapiens, K562, K-562, leukemia; for CC50: read-out: LC50 (the source's name)
[22] = tested on: HCT-116; assay: NCI60 five-dose screen; assay type: cell-based; conditions: Homo sapiens, HCT-116, colon cancer; for CC50: read-out: LC50 (the source's name)
[23] = tested on: UO-31; assay: NCI60 five-dose screen; assay type: cell-based; conditions: Homo sapiens, UO-31, renal cancer; for CC50: read-out: LC50 (the source's name)
[24] = tested on: A498; assay: NCI60 five-dose screen; assay type: cell-based; conditions: Homo sapiens, A498, renal cancer; for CC50: read-out: LC50 (the source's name)
[25] = tested on: KM12; assay: NCI60 five-dose screen; assay type: cell-based; conditions: Homo sapiens, KM12, colon cancer; for CC50: read-out: LC50 (the source's name)
[26] = tested on: IGROV1; assay: NCI60 five-dose screen; assay type: cell-based; conditions: Homo sapiens, IGROV-1; IGROV1, ovarian cancer
[27] = tested on: MCF7; assay: NCI60 five-dose screen; assay type: cell-based; conditions: Homo sapiens, MCF7, breast cancer; for CC50: read-out: LC50 (the source's name)
[28] = tested on: MDA-MB-435; assay: NCI60 five-dose screen; assay type: cell-based, human; conditions: for CC50: read-out: LC50 (the source's name)
[29] = tested on: SK-MEL-2; assay: NCI60 five-dose screen; assay type: cell-based; conditions: Homo sapiens, SK-MEL-2, melanoma; for CC50: read-out: LC50 (the source's name)
[30] = tested on: TK-10; assay: NCI60 five-dose screen; assay type: cell-based; conditions: Homo sapiens, TK-10, renal cancer; for CC50: read-out: LC50 (the source's name)
[31] = tested on: SK-OV-3; assay: NCI60 five-dose screen; assay type: cell-based; conditions: Homo sapiens, SK-OV-3, ovarian cancer; for CC50: read-out: LC50 (the source's name)
[32] = Homo sapiens, MDA-MB-435, MDA-MB-435, melanoma
[33] = Homo sapiens, MDA-MB-435, melanoma

CCc1cc[nH]c1/C=N/NC(=O)c1[nH]c2ccc(Br)cc2c1-c1ccccc1 [Derivative 3u, (E)-5-Bromo-N′-((3-ethyl-1H-pyrrol-2-yl)methylene)-3-phenyl-1H-indole-2-carbohydrazide]
GI50 [1]: 2.04 µM
CC50 [1]: 78.6 µM
GI50 [2]: 3.2 µM
CC50 [2]: 44 µM
GI50 [3]: 3.6 µM
CC50 [3]: 61.8 µM
GI50 [4]: 2.35 µM
CC50 [4]: 63.8 µM
GI50 [5]: 2.48 µM
CC50 [5]: 30.8 µM
GI50 [6]: 2.15 µM
CC50 [6]: 37.8 µM
CC50 [7]: 27.2 µM
GI50 [7]: 2.54 µM
GI50 [8]: 3.46 µM
CC50 [8]: 40.1 µM
GI50 [9]: 2.03 µM
CC50 [9]: 24.3 µM
GI50 [10]: 3.82 µM
CC50 [10]: 43.3 µM
GI50 [11]: 4.11 µM
CC50 [11]: 42.4 µM
GI50 [12]: 6.77 µM
CC50 [12]: 45.4 µM
GI50 [13]: 3.17 µM
CC50 [13]: 35.6 µM
GI50 [14]: 2.66 µM
CC50 [14]: 38.3 µM
GI50 [15]: 1.19 µM
CC50 [15]: 18.7 µM
GI50 [16]: 3.5 µM
CC50 [16]: 40 µM
GI50 [17]: 5.02 µM
CC50 [17]: 44.7 µM
GI50 [18]: 2.17 µM
CC50 [18]: 41.9 µM
GI50 [19]: 4.94 µM
CC50 [19]: 43.4 µM
IC50 [20]: 6.2 ± 3.6 µM
GI50 [21]: 2.27 µM
CC50 [21]: 56.2 µM
GI50 [22]: 2.5 µM
CC50 [22]: 44 µM
GI50 [23]: 2.94 µM
CC50 [23]: 39.7 µM
GI50 [24]: 1.45 µM
CC50 [24]: 55.4 µM
GI50 [25]: 3.17 µM
CC50 [25]: 42.3 µM
GI50 [26]: 3.52 µM
LC50 (concentration causing 50% net cell kill) [26]: 44 µM
GI50 [27]: 2.63 µM
CC50 [27]: 37.5 µM
CC50 [28, 32]: 41.6 µM
GI50 [28, 33]: 4.12 µM
GI50 [29]: 6.77 µM
CC50 [29]: 45.8 µM
GI50 [30]: 5.05 µM
CC50 [30]: 41.6 µM
GI50 [31]: 2.59 µM
CC50 [31]: 42.4 µM

CCOC(=O)c1cc(/C=N/NC(=O)c2[nH]c3ccc(Br)cc3c2-c2ccccc2)c[nH]1 [Derivative 3v, Ethyl (E)-4-((2-(5-bromo-3-phenyl-1H-indole-2-carbonyl)hydrazono)methyl)-1H-pyrrole-2-carboxylate]
GI50 [1]: 3.84 µM
CC50 [1]: > 100 µM
GI50 [2]: 3.23 µM
CC50 [2]: 33.4 µM
GI50 [3]: 3.11 µM
CC50 [3]: > 100 µM
GI50 [4]: 3.7 µM
CC50 [4]: > 100 µM
GI50 [5]: 3.18 µM
CC50 [5]: 40.7 µM
GI50 [6]: 3.8 µM
CC50 [6]: 37.6 µM
CC50 [7]: 17.9 µM
GI50 [7]: 2.01 µM
GI50 [8]: 4.73 µM
CC50 [8]: 48.5 µM
GI50 [9]: 4.68 µM
CC50 [9]: > 100 µM
GI50 [10]: 4.41 µM
CC50 [10]: 40.1 µM
GI50 [11]: 4.17 µM
CC50 [11]: 42.1 µM
GI50 [12]: 3.49 µM
CC50 [12]: 37.4 µM
GI50 [13]: 2.02 µM
CC50 [13]: 13.5 µM
GI50 [14]: 3.42 µM
CC50 [14]: 40.4 µM
GI50 [15]: 2.56 µM
CC50 [15]: 33 µM
GI50 [16]: 4.32 µM
CC50 [16]: 52.8 µM
GI50 [17]: 3.27 µM
CC50 [17]: 33.8 µM
GI50 [18]: 5.88 µM
CC50 [18]: > 100 µM
GI50 [19]: 1.95 µM
CC50 [19]: 90.6 µM
IC50 [20]: 24.9 ± 8.4 µM
GI50 [21]: 4.59 µM
CC50 [21]: > 100 µM
GI50 [22]: 3.42 µM
CC50 [22]: 50.5 µM
GI50 [23]: 4.21 µM
CC50 [23]: 61.9 µM
GI50 [24]: 12.9 µM
CC50 [24]: 52.1 µM
GI50 [25]: 3.37 µM
CC50 [25]: 35.5 µM
GI50 [26]: 3.75 µM
GI50 [27]: 3.03 µM
CC50 [27]: 40.3 µM
CC50 [28, 32]: 9.35 µM
GI50 [28, 33]: 1.54 µM
CC50 ([28]; MDA-MB-435, melanoma): 9.53 µM
GI50 [29]: 4.37 µM
CC50 [29]: 47.3 µM
GI50 [30]: 12.5 µM
CC50 [30]: 80.7 µM
GI50 [31]: 1.31 µM
CC50 [31]: 80.3 µM
